For assay [1], the target named is T1, Human PDE10A2 (Homo sapiens (Human), UniProt Q9Y233). Put plainly: biochemical. The following applies: human PDE10A2 0.25 nM, cGMP 3 μM. It counts as biochemical. The method, then: Semi Log compound dilutions starting at a final concentration of 50 μM were dispensed into a black 384 well plate alongside, DMSO and an Inhibited control using the Echo Acoustic dispenser. […] Data was analysed using a 4-parameter fit.

Assay [2] concerns the target T1, Human PDE10A2. Put plainly: cell-based. Particulars: Forskolin 10 μM; read-out: cAMP HTRF Assay in HEK 293 rhPDE10A2 cell line (pIC50) (converted). The method, then:
Semi log compound dilutions starting at a final concentration of 10 μM were dispensed into a white 384 well plate, alongside DMSO and an Inhibited control using the Tecan D300e digital dispenser. HEK 293 cells overexpressing recombinant human PDE10A2 were seeded on top of the compounds at 2500 cells/well in a volume 5 μL/well. The plate was incubated at room temperature for 60 minutes. To induce endogenous cAMP, 5 μL/well of Forskolin at a final assay concentration of 10 μM was added to the plate. The plate was incubated at room temperature for a further 45 minutes. cAMP HTRF detection reagents were added, and the plate was incubated for 60 minutes at room temperature. […] Data was analysed using a 4-parameter fit.

T1 sequence (Q9Y233 267-1055): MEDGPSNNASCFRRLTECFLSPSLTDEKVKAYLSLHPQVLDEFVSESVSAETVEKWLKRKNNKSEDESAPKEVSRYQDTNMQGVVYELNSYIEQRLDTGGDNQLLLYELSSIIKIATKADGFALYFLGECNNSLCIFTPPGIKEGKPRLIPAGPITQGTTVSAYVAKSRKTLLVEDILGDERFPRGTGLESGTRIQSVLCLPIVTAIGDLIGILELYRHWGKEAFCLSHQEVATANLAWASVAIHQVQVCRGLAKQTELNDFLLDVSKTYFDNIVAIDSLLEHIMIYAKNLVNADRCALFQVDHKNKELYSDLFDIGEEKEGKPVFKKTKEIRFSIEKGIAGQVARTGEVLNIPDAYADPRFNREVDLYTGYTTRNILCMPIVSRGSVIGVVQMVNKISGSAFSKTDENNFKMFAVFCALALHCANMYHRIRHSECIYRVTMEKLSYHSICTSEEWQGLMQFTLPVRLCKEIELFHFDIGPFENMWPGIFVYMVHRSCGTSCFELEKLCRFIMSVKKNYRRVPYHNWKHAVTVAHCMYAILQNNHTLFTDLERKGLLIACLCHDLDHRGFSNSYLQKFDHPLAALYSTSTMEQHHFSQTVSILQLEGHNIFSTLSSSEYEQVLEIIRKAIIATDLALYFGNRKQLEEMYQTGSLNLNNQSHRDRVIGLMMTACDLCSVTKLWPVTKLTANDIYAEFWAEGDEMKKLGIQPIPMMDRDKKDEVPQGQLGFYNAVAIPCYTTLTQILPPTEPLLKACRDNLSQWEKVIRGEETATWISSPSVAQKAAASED

Take `Cn1cc(-c2ccccc2)nc1C#Cc1nc(N2CC3(COC3)C2)c2ncn(C)c2n1` [Example 1, 6-[9-Methyl-2-[2-(1-methyl-4-phenyl-imidazol-2-yl)ethynyl]purin-6-yl]-2-oxa-6-azaspiro[3.3]heptane]: on Human PDE10A2 [1], the “PDE10A2 Phosphate Sensor Enzyme Assay (pIC50)” value worked out at 9.26. The IC50 on Human PDE10A2 [2] was 1.17 nM.

Consider `Cn1cc(-c2cccnc2)nc1C#Cc1nc(N2CC3(COC3)C2)c2ncn(C)c2n1` [Example 2, 6-[9-Methyl-2-[2-[1-methyl-4-(3-pyridyl)imidazol-2-yl]ethynyl]purin-6-yl]-2-oxa-6-azaspiro[3.3]heptane], for which the “PDE10A2 Phosphate Sensor Enzyme Assay (pIC50)” value on Human PDE10A2 [1] is on record as 8.62. For the same compound, the IC50 at Human PDE10A2 [2] is 1.55 nM.

With `Cn1cc(-c2ccccc2)nc1C#Cc1nc(N2CC3(COC3)C2)c2cnn(C)c2n1` [Example 3, 6-[1-Methyl-6-[2-(1-methyl-4-phenyl-imidazol-2-yl)ethynyl]pyrazolo[3,4-d]pyrimidin-4-yl]-2-oxa-6-azaspiro[3.3]heptane], at Human PDE10A2 [1], the “PDE10A2 Phosphate Sensor Enzyme Assay (pIC50)” value was determined as 9.99. The IC50 at Human PDE10A2 [2] was 0.275 nM.

Take `Cn1cnc2c(N3CC4(COC4)C3)nc(C#Cc3nc(-c4ccccc4)cn3CC3CCOCC3)nc21` [Example 4, 6-[9-Methyl-2-[2-[4-phenyl-1-(tetrahydropyran-4-ylmethyl)imidazol-2-yl]ethynyl]purin-6-yl]-2-oxa-6-azaspiro[3.3]heptane]: the “PDE10A2 Phosphate Sensor Enzyme Assay (pIC50)” value on Human PDE10A2 [1] stood at 9.00. Further, the IC50 on Human PDE10A2 [2] was 6.31 nM.

In the case of `Cn1cnc2c(N3CC4(COC4)C3)nc(C#Cc3nc(-c4ccccc4)cn3CCN3CCOCC3)nc21` [Example 5, 6-[9-Methyl-2-[2-[1-(2-morpholinoethyl)-4-phenyl-imidazol-2-yl]ethynyl]purin-6-yl]-2-oxa-6-azaspiro[3.3]heptane], the “PDE10A2 Phosphate Sensor Enzyme Assay (pIC50)” value at Human PDE10A2 [1] worked out at 9.37. Moreover, the IC50 at Human PDE10A2 [2] is 0.427 nM.

In the case of `Cn1cc(-c2ccccc2)nc1C#Cc1nc(N2CC3(COC3)C2)c2cnn(C3CCOCC3)c2n1` [Example 6, 6-[6-[2-(1-Methyl-4-phenyl-imidazol-2-yl)ethynyl]-1-tetrahydropyran-4-yl-pyrazolo[3,4-d]pyrimidin-4-yl]-2-oxa-6-azaspiro[3.3]heptane], the “PDE10A2 Phosphate Sensor Enzyme Assay (pIC50)” value on Human PDE10A2 [1] is on record as 9.20. The IC50 on Human PDE10A2 [2] is 14.8 nM.

For the compound `Cn1cnc2c(N3CC4(COC4)C3)nc(C#Cc3nc(-c4ccccc4)c[nH]3)nc21` [Example 7, 6-[9-Methyl-2-[2-(4-phenyl-1H-imidazol-2-yl)ethynyl]purin-6-yl]-2-oxa-6-azaspiro[3.3]heptane], the “PDE10A2 Phosphate Sensor Enzyme Assay (pIC50)” value on Human PDE10A2 [1] was determined as 9.22. Further, the IC50 at Human PDE10A2 [2] was 2.95 nM.

As for `Cn1cc(-c2ccccc2)nc1C#Cc1nc(N2CC3(COC3)C2)c2cnn(CC3CNC3)c2n1` [Example 8, 6-[1-(Azetidin-3-ylmethyl)-6-[2-(1-methyl-4-phenyl-imidazol-2-yl)ethynyl]pyrazolo[3,4-d]pyrimidin-4-yl]-2-oxa-6-azaspiro[3.3]heptane], on Human PDE10A2 [1], the “PDE10A2 Phosphate Sensor Enzyme Assay (pIC50)” value was found to be 8.45. Besides, the IC50 on Human PDE10A2 [2] is 5.75 nM.

Consider `Cn1ncc2c(N3C[C@H]4COC[C@H]4C3)nc(C#Cc3nc(-c4ccccc4)c[nH]3)nc21` [Example 9, (3aS,6aR)-5-[1-methyl-6-[2-(4-phenyl-1H-imidazol-2-yl)ethynyl]pyrazolo[3,4-d]pyrimidin-4-yl]-1,3,3a,4,6,6a-hexahydrofuro[3,4-c]pyrrole], for which the IC50 at Human PDE10A2 [1] (read-out: PDE10A2 Phosphate Sensor Enzyme Assay (pIC50) (converted)) was 0.0251 nM; on Human PDE10A2 [2] it was 0.603 nM.

Turning to `CN(C)CCOc1cccc(-c2c[nH]c(C#Cc3nc(N4C[C@H]5COC[C@H]5C4)c4cnn(C)c4n3)n2)c1` [Example 10, 2-[3-[2-[2-[4-[(3aS,6aR)-1,3,3a,4,6,6a-Hexahydrofuro[3,4-c]pyrrol-5-yl]-1-methyl-pyrazolo[3,4-d]pyrimidin-6-yl]ethynyl]-1H-imidazol-4-yl]phenoxy]-N,N-dimethyl-ethanamine], on Human PDE10A2 [1], the “PDE10A2 Phosphate Sensor Enzyme Assay (pIC50)” value came to 10.4. Further, on Human PDE10A2 [2], the IC50 was 0.661 nM.

Consider `Cn1cc(-c2ccccc2)nc1C#Cc1nc2c(c(N3CCOCC3)n1)CCNC2` [Example 11, 4-[2-[2-(1-Methyl-4-phenyl-imidazol-2-yl)ethynyl]-5,6,7,8-tetrahydropyrido[3,4-d]pyrimidin-4-yl]morpholine], for which the “PDE10A2 Phosphate Sensor Enzyme Assay (pIC50)” value at Human PDE10A2 [1] was 9.80. Moreover, on Human PDE10A2 [2], the IC50 is 1.86 nM.

In the case of `C[C@@H]1COCCN1c1nc(C#Cc2nc(-c3ccccc3)cn2C)nc2c1CCNC2` [Example 12, (3R)-3-Methyl-4-[2-[2-(1-methyl-4-phenyl-imidazol-2-yl)ethynyl]-5,6,7,8-tetrahydropyrido[3,4-d]pyrimidin-4-yl]morpholine], at Human PDE10A2 [1], the “PDE10A2 Phosphate Sensor Enzyme Assay (pIC50)” value is recorded as 10.40. Also, the IC50 on Human PDE10A2 [2] is 0.437 nM.

Consider `C[C@H]1COCCN1c1nc(C#Cc2nc(-c3ccccc3)cn2C)nc2c1CCNC2` [Example 13, (3S)-3-Methyl-4-[2-[2-(1-methyl-4-phenyl-imidazol-2-yl)ethynyl]-5,6,7,8-tetrahydropyrido[3,4-d]pyrimidin-4-yl]morpholine], for which the “PDE10A2 Phosphate Sensor Enzyme Assay (pIC50)” value at Human PDE10A2 [1] amounted to 8.92. On Human PDE10A2 [2], the IC50 is greater than 1000 nM.

Take `Cn1cc(-c2ccccc2)nc1C#Cc1nc2c(c(N3CCOCC3)n1)CCN(C1COC1)C2` [Example 14, 4-[2-[2-(1-Methyl-4-phenyl-imidazol-2-yl)ethynyl]-7-(oxetan-3-yl)-6,8-dihydro-5H-pyrido[3,4-d]pyrimidin-4-yl]morpholine]: on Human PDE10A2 [1], the “PDE10A2 Phosphate Sensor Enzyme Assay (pIC50)” value is listed as 9.35. In addition, the IC50 on Human PDE10A2 [2] is 1.78 nM.

Take `Cn1cc(-c2ccccc2)nc1C#Cc1nc2c(c(N3CCOCC3)n1)CCN(CC1CC1)C2` [Example 15, 4-[7-(Cyclopropylmethyl)-2-[2-(1-methyl-4-phenyl-imidazol-2-yl)ethynyl]-6,8-dihydro-5H-pyrido[3,4-d]pyrimidin-4-yl]morpholine]: the “PDE10A2 Phosphate Sensor Enzyme Assay (pIC50)” value at Human PDE10A2 [1] came out at 8.72. Also, the IC50 on Human PDE10A2 [2] was 562 nM.

Take `Cn1cc(-c2ccccc2)nc1C#Cc1nc(N2C[C@H]3COC[C@H]3C2)c2cnn(CC3CC3)c2n1` [Example 16, (3aR,6aS)-5-(1-(Cyclopropylmethyl)-6-((1-methyl-4-phenyl-1H-imidazol-2-yl)ethynyl)-1H-pyrazolo[3,4-d]pyrimidin-4-yl)hexahydro-1H-furo[3,4-c]pyrrole]: at Human PDE10A2 [1], the “PDE10A2 Phosphate Sensor Enzyme Assay (pIC50)” value amounted to 10.10. The IC50 at Human PDE10A2 [2] is 4.17 nM.

With `CCn1ncc2c(N3C[C@H]4COC[C@H]4C3)nc(C#Cc3nc(-c4ccccc4)cn3C)nc21` [Example 17, (3aR,6aS)-5-(1-Ethyl-6-((1-methyl-4-phenyl-1H-imidazol-2-yl)ethynyl)-1H-pyrazolo[3,4-d]pyrimidin-4-yl)hexahydro-1H-furo[3,4-c]pyrrole], the “PDE10A2 Phosphate Sensor Enzyme Assay (pIC50)” value at Human PDE10A2 [1] is reported as 10.50. Moreover, the IC50 at Human PDE10A2 [2] is 0.331 nM.

`CC(C)n1ncc2c(N3C[C@H]4COC[C@H]4C3)nc(C#Cc3nc(-c4ccccc4)cn3C)nc21` [Example 18, (3aR,6aS)-5-(1-isoPropyl-6-((1-methyl-4-phenyl-1H-imidazol-2-yl)ethynyl)-1H-pyrazolo[3,4-d]pyrimidin-4-yl)hexahydro-1H-furo[3,4-c]pyrrole]: the “PDE10A2 Phosphate Sensor Enzyme Assay (pIC50)” value on Human PDE10A2 [1] was found to be 9.99. For the same compound, the IC50 on Human PDE10A2 [2] is 0.617 nM.

For the compound `Cn1cc(-c2ccccc2)nc1C#Cc1nc(N2C[C@H]3COC[C@H]3C2)c2cnn(C3COC3)c2n1` [Example 19, (3aR,6aS)-5-(6-((1-Methyl-4-phenyl-1H-imidazol-2-yl)ethynyl)-1-(oxetan-3-yl)-1H-pyrazolo[3,4-d]pyrimidin-4-yl)hexahydro-1H-furo[3,4-c]pyrrole], at Human PDE10A2 [1], the “PDE10A2 Phosphate Sensor Enzyme Assay (pIC50)” value came to 9.41. Besides, the IC50 on Human PDE10A2 [2] was 11.2 nM.

For `Cn1cc(-c2ccccc2)nc1C#Cc1nc(N2C[C@H]3COC[C@H]3C2)c2ncn(C)c2n1` [Example 20, (3aR,6aS)-5-(9-Methyl-2-((1-methyl-4-phenyl-1H-imidazol-2-yl)ethynyl)-9H-purin-6-yl)hexahydro-1H-furo[3,4-c]pyrrole], on Human PDE10A2 [1], the “PDE10A2 Phosphate Sensor Enzyme Assay (pIC50)” value was found to be 9.53. In addition, at Human PDE10A2 [2], the IC50 was 8.71 nM.

Consider `C[C@@H]1COCCN1c1nc(C#Cc2nc(-c3ccccc3)cn2C)nc2c1ncn2C` [Example 21, (R)-3-Methyl-4-(9-methyl-2-((1-methyl-4-phenyl-1H-imidazol-2-yl)ethynyl)-9H-purin-6-yl)morpholine], for which the “PDE10A2 Phosphate Sensor Enzyme Assay (pIC50)” value on Human PDE10A2 [1] was 10.30. Also, the IC50 at Human PDE10A2 [2] is 0.417 nM.

As to `C[C@H]1COCCN1c1nc(C#Cc2nc(-c3ccccc3)cn2C)nc2c1ncn2C` [Example 22, (S)-3-Methyl-4-(9-methyl-2-((1-methyl-4-phenyl-1H-imidazol-2-yl)ethynyl)-9H-purin-6-yl)morpholine], the “PDE10A2 Phosphate Sensor Enzyme Assay (pIC50)” value on Human PDE10A2 [1] is recorded as 9.22.

With `CC(C)n1ncc2c(N3C[C@H]4COC[C@H]4C3)nc(C#Cc3nc(-c4ccccc4)c[nH]3)nc21` [Example 25, (3aR,6aS)-5-(1-isoPropyl-6-((4-phenyl-1H-imidazol-2-yl)ethynyl)-1H-pyrazolo[3,4-d]pyrimidin-4-yl)hexahydro-1H-furo[3,4-c]pyrrole], at Human PDE10A2 [1], the “PDE10A2 Phosphate Sensor Enzyme Assay (pIC50)” value came out at 9.95.

For `C(#Cc1nc(-c2ccccc2)c[nH]1)c1nc(N2C[C@H]3COC[C@H]3C2)c2cnn(CC3CC3)c2n1` [Example 26, (3aR,6aS)-5-(1-(Cyclopropylmethyl)-6-((4-phenyl-1H-imidazol-2-yl)ethynyl)-1H-pyrazolo[3,4-d]pyrimidin-4-yl)hexahydro-1H-furo[3,4-c]pyrrole], the “PDE10A2 Phosphate Sensor Enzyme Assay (pIC50)” value on Human PDE10A2 [1] was determined as 9.99.

For the origin of these results see US20240343729A1 (priority 2021, published 2024).
